In article PMC5372681, “Study of Different Variants of Mo Enzyme crARC and the Interaction with Its Partners crCytb5-R and crCytb5-1” (International Journal of Molecular Sciences, 2017):

Legend:
Format in all cases: biochemical
crARC [1] = target: T1, crARC (Chlamydomonas reinhardtii, UniProt F8UWQ7); assay: HPLC of benzamidine formed; conditions: 1 mM benzamidoxime, 3 mM dithionite, 2 mM benzylviologen, 100 mM potassium phosphate pH 7.4, 37 °C
T1 construct: gene ARC; N-terminal His6 (pQE80), E. coli TP1000, Ni-NTA
T1 sequence (F8UWQ7 entry or part of it): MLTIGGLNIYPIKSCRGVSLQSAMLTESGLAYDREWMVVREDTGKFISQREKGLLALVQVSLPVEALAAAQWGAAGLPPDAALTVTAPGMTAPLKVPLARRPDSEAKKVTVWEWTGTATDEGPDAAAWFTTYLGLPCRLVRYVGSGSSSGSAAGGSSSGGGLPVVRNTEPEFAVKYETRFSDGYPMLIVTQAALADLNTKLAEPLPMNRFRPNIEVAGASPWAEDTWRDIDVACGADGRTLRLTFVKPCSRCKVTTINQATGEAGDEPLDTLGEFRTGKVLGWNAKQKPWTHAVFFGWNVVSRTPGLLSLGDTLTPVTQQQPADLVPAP

crARC [2] = target: T2, crARC (Chlamydomonas reinhardtii, UniProt F8UWQ7, F210A); assay: HPLC of adenine formed; conditions: 0.5 mM HAP, 3 mM dithionite, 2 mM benzylviologen, 100 mM potassium phosphate pH 7.4, 37 °C
T2 construct: gene ARC; N-terminal His6 (pQE80), E. coli TP1000, Ni-NTA
T2 sequence (F8UWQ7 entry or part of it F210A): as the sequence (F8UWQ7 entry or part of it) above, with F210A counted along it

crARC [3] = target: T3, crARC (Chlamydomonas reinhardtii, UniProt F8UWQ7, D182A); assay: HPLC of adenine formed; conditions: 0.5 mM HAP, 3 mM dithionite, 2 mM benzylviologen, 100 mM potassium phosphate pH 7.4, 37 °C
T3 construct: gene ARC; N-terminal His6 (pQE80), E. coli TP1000, Ni-NTA
T3 sequence (F8UWQ7 entry or part of it D182A): as the sequence (F8UWQ7 entry or part of it) above, with D182A counted along it

crARC [4] = target: T4, crARC (Chlamydomonas reinhardtii, UniProt F8UWQ7, R276A); assay: HPLC of adenine formed; conditions: 0.5 mM HAP, 3 mM dithionite, 2 mM benzylviologen, 100 mM potassium phosphate pH 7.4, 37 °C
T4 construct: gene ARC; N-terminal His6 (pQE80), E. coli TP1000, Ni-NTA
T4 sequence (F8UWQ7 entry or part of it R276A): as the sequence (F8UWQ7 entry or part of it) above, with R276A counted along it

crARC [5] = target: T1, crARC; assay: HPLC of adenine formed; conditions: 0.5 mM HAP, 3 mM dithionite, 2 mM benzylviologen, 100 mM potassium phosphate pH 7.4, 37 °C

NC(=NO)c1ccccc1 [benzamidoxime]
HPLC of benzamidine formed (crARC [1]): the crARC activity was assayed in vitro using benzamidoxime as a substrate

ONc1ncnc2[nH]cnc12 [HAP]
HPLC of adenine formed (crARC [2]): the mutants, D182A, F210A and R276A almost completely lost the mARC activity with dithionite | HPLC of adenine formed (crARC [3]): the mutants, D182A, F210A and R276A almost completely lost the mARC activity with dithionite | HPLC of adenine formed (crARC [4]): the mutants, D182A, F210A and R276A almost completely lost the mARC activity with dithionite | HPLC of adenine formed (crARC [5]): The crARC HAP reduction activity was determined with dithionite
